A short description of one data set: in vivo. The conditions noted are these: mouse, iv, mice, i.v. in dimethylsulfoxide, after seven days, Litchfield and Wilcoxon. The procedure:
Intravenous Toxicity in Mice
Male CD1 mice from Charles River (Italy), weighing 25 g were used. Compounds were administered intravenously (i.v.), dissolved in dimethylsulfoxide, and the volume of administration was 0.01 ml per 10 g of body weight. The LD50 after seven days, was calculated according to the method of Litchfield and Wilcoxon (Experimental Therapeutics 96, 99 (1949)).

Data set [1] concerns Spontaneous Hypertensive Rats (SHR). Briefly: Hypotensive activity in spontaneous hypertensive rats (SHR). The class given is in vivo, Male SHR (Okamoto) rats. As to conditions: for ED (25%): Rattus norvegicus, po, p.o. in 0.4% carboxymethyl cellulose, systolic arterial pressure, read-out: Hypotensive activity in SHR ED^SABP -25%; for Hypotensive activity compared with Nifedipine / Duration of hypotensive activity (still present after) / Hypotensive activity relative to Nifedipine: p.o.; for Hypotensive activity compared with Nifedipine: versus Nifedipine; for Hypotensive activity relative to Nifedipine: multiple of Nifedipine activity. The procedure: Hypotensive Activity in Spontaneous Hypertensive Rats (SHR)
Male SHR (Okamoto), of 70-100 days of age were used. The systolic arterial pressure (SABP) was determined by applying to the tail of the animal a pressure transducer with a sleeve connected to a BP-Recorder (W-W Electronic of Basel). The animals were previously warmed to 39° C. for a period of 15-20 minutes in a ventilated chamber.
The rats were previously trained to the registration for 1-2 days prior to the start of the experiment which consisted of a basic registration, the pharmacological treatment and then of subsequent registrations one hour and three hours after the treatment.
All the products were administered orally (p.o.), suspended in 0.4% carboxymethyl cellulose (Methocel); the volume of vehicle was 2 ml per kg.
The compounds of formula (I) were tested at three dose levels and the value of ED-25% was determined.

The subject of a further data set is taenia coli. Description: Antagonistic activity to calcium in the taenia coli of guinea pigs (CaCl2-induced contractions, in vitro). The class given is cell-based, Hartley albino guinea pigs. The conditions noted are these: for IC50: Cavia porcellus, 10 min, read-out: Calcium antagonistic activity in vitro ED50; for Inhibition of contractions due to CaCl2 after washing of the tissue: taenia coli, repeated washing. The procedure:
Antagonistic Activity to Calcium in the Taenia Coli of Guinea Pigs
Hartley albino guinea pigs of average weight 450 g were used. The calcium antagonistic activity was determined stimulating the taenia coli, previously depolarized, with a single submaximal concentration of CaCl2 (10^-3 M), at intervals of 20 minutes (according to the method Naunyn Schmied. Arch. Pharmacol. 318, 235 (1982)). The products were left in contact with the preparation for 10 minutes. The ED50 were calculated from the percentage of maximum inhibition.

Where [2] appears, read: guinea pig taenia coli, depolarized, CaCl2 10^-3 M, 10 min contact, from maximum inhibition.

The structures appear in SMILES notation. Read-outs that look alike come from different tables or passages of the source.

What is called LD50 is the dose at which mortality reaches 50%. Read a high LD50 as a less toxic substance. Take `COC(=O)C1=C(C)NC(C)=C(C(=O)OCCN2CCN(c3ccccc3)CC2)C1c1cccc([N+](=O)[O-])c1` (stereo not drawn) [0219A, 2-(4-Phenyl)piperazino-ethyl 2,6-dimethyl-4-(3-nitrophenyl)-5-methoxycarbonyl-1,4-dihydropyridine-3-carboxylate]: the LD50 at 168 h in the data set “in vivo” was 8.6 mg/kg. Also, the ED (25%) in data set [1] was found to be 8.7 mg/kg. In addition, the IC50 with taenia coli (setting [2]) amounted to 2.4 nM.
The corresponding values for `COC(=O)C1=C(C)NC(C)=C(C(=O)OCCN2CCN(c3nccs3)CC2)C1c1cccc([N+](=O)[O-])c1` (stereo not drawn) [0240A, 2-[4-(2-Thiazolyl)]piperazino-ethyl 2,6-dimethyl-4-(3-nitrophenyl)-5-methoxycarbonyl-1,4-dihydropyridine-3-carboxylate] are 7.1 mg/kg, 31 mg/kg and 4.2 nM.
Regarding `COC(=O)C1=C(C)NC(C)=C(C(=O)OCCN2CCN(c3ncccn3)CC2)C1c1cccc([N+](=O)[O-])c1` (stereo not drawn) [0241A], the LD50 at 168 h in the data set “in vivo” is 34.6 mg/kg. Besides, in data set [1], the ED (25%) came to 72 mg/kg. For the same molecule, the IC50 with taenia coli (setting [2]) came out at 4.6 nM. The “Inhibition of contractions due to CaCl2 after washing of the tissue” value in the data set on taenia coli was “readily reversible”.
`COC(=O)C1=C(C)NC(C)=C(C(=O)OCCN2CCN(c3ccccc3OC)CC2)C1c1cccc([N+](=O)[O-])c1` (stereo not drawn) [0242A, 2-[4-(2-Methoxyphenyl)]-piperazino-ethyl 2,6-dimethyl-4-(3-nitrophenyl)-5-methoxycarbonyl-1,4-dihydropyridine-3-carboxylate] registered a 50% lethal dose (LD50) at 168 h in “in vivo” of 2.9 mg/kg. The ED (25%) in data set [1] is 13.8 mg/kg. Moreover, the IC50 with taenia coli (setting [2]) was found to be 3.4 nM.
The corresponding values for `COC(=O)C1=C(C)NC(C)=C(C(=O)OCCN2CCN(c3ccccc3C)CC2)C1c1cccc([N+](=O)[O-])c1` (stereo not drawn) [0243A, 2-[4-(2-Tolyl)]piperazino-ethyl 2,6-dimethyl-4-(3-nitrophenyl)-5-methoxycarbonyl-1,4-dihydropyridine-3-carboxylate] are 14.7 mg/kg, 6.6 mg/kg and 1.9 nM.
Turning to `COC(=O)C1=C(C)NC(C)=C(C(=O)OCCN2CCN(c3ccccc3Cl)CC2)C1c1cccc([N+](=O)[O-])c1` (stereo not drawn) [0248B], the LD50 at 168 h in the data set “in vivo” worked out at 24.7 mg/kg. For the same molecule, in data set [1], the ED (25%) was 13.8 mg/kg and the “Hypotensive activity compared with Nifedipine” value is on record as “superior activity”. Further, the IC50 in the data set with taenia coli (setting [2]) worked out at 3 nM.
In the data set “in vivo”, `COC(=O)C1=C(C)NC(C)=C(C(=O)OCCN2CCN(c3cccc(C(F)(F)F)c3)CC2)C1c1cccc([N+](=O)[O-])c1` (stereo not drawn) [0249B] gave an LD50 at 168 h of 35.3 mg/kg. Moreover, in data set [1], the ED (25%) came out at 6.6 mg/kg, the “Duration of hypotensive activity (still present after)” value (“Duration of hypotensive activity” below) is at least 30 h, the “Hypotensive activity relative to Nifedipine” value is “about twice the activity of Nifedipine” and the “Hypotensive activity compared with Nifedipine” value is given as “superior activity”. The IC50 with taenia coli (setting [2]) turned out to be 22 nM.
`COC(=O)C1=C(C)NC(C)=C(C(=O)OCCN2CCN(c3ccc(F)cc3)CC2)C1c1cccc([N+](=O)[O-])c1` (stereo not drawn) [0250B] had an LD50 at 168 h in “in vivo” of 17.7 mg/kg. In data set [1], the ED (25%) worked out at 7.5 mg/kg, the “Duration of hypotensive activity” value is at least 30 h, the “Hypotensive activity relative to Nifedipine” value is listed as “about twice the activity of Nifedipine” and the “Hypotensive activity compared with Nifedipine” value is on record as “superior activity”. In addition, the IC50 in the data set on taenia coli (setting [2]) is 2.5 nM.
For the molecule `COC(=O)C1=C(C)NC(C)=C(C(=O)OCCN2CCN(c3ccccn3)CC2)C1c1cccc([N+](=O)[O-])c1` (stereo not drawn) [0251B], the LD50 at 168 h in the data set “in vivo” stood at 12.6 mg/kg. In addition, the ED (25%) in data set [1] came to 34 mg/kg. Also, in the data set with taenia coli (setting [2]), the IC50 came out at 4.6 nM.
In the case of `COC(=O)C1=C(C)NC(C)=C(C(=O)OCCN2CCN(c3cccc(Cl)c3)CC2)C1c1cccc([N+](=O)[O-])c1` (stereo not drawn) [0255B], in “in vivo”, the LD50 at 168 h came to 25.5 mg/kg. Further, in data set [1], the ED (25%) amounted to 6.3 mg/kg and the “Hypotensive activity compared with Nifedipine” value was “superior activity”. In the data set on taenia coli (setting [2]), the IC50 came to 3.5 nM.
`COC(=O)C1=C(C)NC(C)=C(C(=O)OCCN2CCN(c3ccc(Cl)cc3)CC2)C1c1cccc([N+](=O)[O-])c1` (stereo not drawn) [0264B] registered an LD50 at 168 h in “in vivo” of 32.1 mg/kg. For the same molecule, in data set [1], the ED (25%) worked out at 6.3 mg/kg, the “Duration of hypotensive activity” value was at least 30 h, the “Hypotensive activity relative to Nifedipine” value is recorded as “about twice the activity of Nifedipine” and the “Hypotensive activity compared with Nifedipine” value was “superior activity”. Also, in the data set on taenia coli (setting [2]), the IC50 came to 6.4 nM.
`COC(=O)C1=C(C)NC(C)=C(C(=O)OCCN2CCN(c3ccc(OC)cc3)CC2)C1c1cccc([N+](=O)[O-])c1` (stereo not drawn) [0266B] yielded an LD50 at 168 h in the data set “in vivo” of 22.7 mg/kg. Also, the ED (25%) in data set [1] was determined as 10.7 mg/kg. Also, the IC50 in the data set on taenia coli (setting [2]) is 3.6 nM.
In “in vivo”, `CC1=C(C(=O)OCCN2CCN(c3ccc(F)cc3)CC2)C(c2cccc([N+](=O)[O-])c2)C(C(=O)OCC(C)C)=C(C)N1` (stereo not drawn) [0282C] displayed an LD50 at 168 h of 27.5 mg/kg. Further, the ED (25%) in data set [1] was found to be 3.9 mg/kg. Further, the IC50 with taenia coli (setting [2]) worked out at 4.9 nM.
The corresponding values for `COCCOC(=O)C1=C(C)NC(C)=C(C(=O)OCCN2CCN(c3ccc(F)cc3)CC2)C1c1cccc([N+](=O)[O-])c1` (stereo not drawn) [0283C] are 7.8 mg/kg, 8.3 mg/kg and 2.6 nM.
For `CCOC(=O)C1=C(C)NC(C)=C(C(=O)OCCN2CCN(c3ccc(F)cc3)CC2)C1c1cccc([N+](=O)[O-])c1` (stereo not drawn) [0284C], the LD50 at 168 h in “in vivo” was found to be 9.5 mg/kg. Besides, the ED (25%) in data set [1] was found to be 5.3 mg/kg. Moreover, in the data set on taenia coli (setting [2]), the IC50 came out at 1.3 nM.
In the data set “in vivo”, `COC(=O)C1=C(C)NC(C)=C(C(=O)OCCN2CCN(c3ccc(Cl)c(Cl)c3)CC2)C1c1cccc([N+](=O)[O-])c1` (stereo not drawn) [0285C] yielded an LD50 at 168 h of 39 mg/kg. Also, the ED (25%) in data set [1] is 10.2 mg/kg. For the same molecule, the IC50 in the data set on taenia coli (setting [2]) stood at 10.5 nM.
The corresponding values for `CC1=C(C(=O)OCCN2CCN(c3ccccc3)CC2)C(c2cccc([N+](=O)[O-])c2)C(C(=O)OCC(C)C)=C(C)N1` (stereo not drawn) [0289C, 2-(4-Phenyl)piperazinoethyl-2,6-dimethyl-4-(3-nitrophenyl)-5-isobutoxycarbonyl-1,4-dihydropyridine-3-carboxylate] are 12 mg/kg, 2.2 mg/kg and 6.3 nM.
Taken in the same sequence, the figures for `COCCOC(=O)C1=C(C)NC(C)=C(C(=O)OCCN2CCN(c3ccccc3)CC2)C1c1cccc([N+](=O)[O-])c1` (stereo not drawn) [0290C, 2-(4-Phenyl)piperazinoethyl-2,6-dimethyl-4-(3-nitrophenyl)-5-(2-methoxy)ethoxycarbonyl-1,4-dihydropyridine-3-carboxylate] were 7.5 mg/kg, 16.7 mg/kg and 3 nM.
For `CCOC(=O)C1=C(C)NC(C)=C(C(=O)OCCN2CCN(c3ccccc3)CC2)C1c1cccc([N+](=O)[O-])c1` (stereo not drawn) [0291C], the LD50 at 168 h in the data set “in vivo” was 25 mg/kg. The ED (25%) in data set [1] stood at 6.6 mg/kg. Also, in the data set with taenia coli (setting [2]), the IC50 amounted to 3.9 nM.
For `CC1=C(C(=O)OCCN2CCN(c3ccc(Cl)cc3)CC2)C(c2cccc([N+](=O)[O-])c2)C(C(=O)OCC(C)C)=C(C)N1` (stereo not drawn) [0292C, 2-[4-(4-Chlorophenyl)]piperazinoethyl-2,6-dimethyl-4-(3-nitrophenyl)-5-isobutoxycarbonyl-1,4-dihydropyridine-3-carboxylate], the LD50 at 168 h in the data set “in vivo” was 35 mg/kg. Moreover, the ED (25%) in data set [1] stood at 11.7 mg/kg. For the same molecule, the IC50 in the data set on taenia coli (setting [2]) is 94 nM.
Taken in the same sequence, the figures for `COCCOC(=O)C1=C(C)NC(C)=C(C(=O)OCCN2CCN(c3ccc(Cl)cc3)CC2)C1c1cccc([N+](=O)[O-])c1` (stereo not drawn) [0293C, 2-[4-(4-Chlorophenyl)]piperazinoethyl-2,6-dimethyl-4-(3-nitrophenyl)-5-(2-methoxy)ethoxycarbonyl-1,4-dihydropyridine-3-carboxylate] were 16 mg/kg, 10.5 mg/kg and 4.1 nM.
In the data set “in vivo”, `CCOC(=O)C1=C(C)NC(C)=C(C(=O)OCCN2CCN(c3ccc(Cl)cc3)CC2)C1c1cccc([N+](=O)[O-])c1` (stereo not drawn) [0294C, 2-[4-(4-Chlorophenyl)]piperazinoethyl-2,6-dimethyl-4-(3-nitrophenyl)-5-ethoxycarbonyl-1,4-dihydropyridine-3-carboxylate] returned an LD50 at 168 h of 19 mg/kg. Besides, the ED (25%) in data set [1] came to 4.2 mg/kg. Moreover, the IC50 with taenia coli (setting [2]) amounted to 5.1 nM.
Regarding `COC(=O)C1=C(C)NC(C)=C(C(=O)OCCN(C)Cc2ccccc2)C1c1cccc([N+](=O)[O-])c1` (stereo not drawn) [Nicardipine, reference compound], in data set [1], the ED (25%) came to 8.6 mg/kg. In the data set on taenia coli (setting [2]), the IC50 was determined as 2.3 nM.
In the case of `COC(=O)C1=C(C)NC(C)=C(C(=O)OC)C1c1ccccc1[N+](=O)[O-]` [Nifedipine, reference compound], in data set [1], the ED (25%) amounted to 25 mg/kg. Moreover, in the data set with taenia coli, the IC50 was determined as 2.6 nM and the “Inhibition of contractions due to CaCl2 after washing of the tissue” value is recorded as “readily reversible”.
On to `CCOC(=O)C1=C(C)NC(C)=C(C(=O)OC)C1c1cccc([N+](=O)[O-])c1` (stereo not drawn) [Nitrendipine, reference compound], for which the IC50 in the data set with taenia coli (setting [2]) is 1.9 nM.

For the origin of these results see US4894460A (Pierrel S.p.A., priority 1982, dated 1990).
